Laboratory results as given in patent US20250206718A1, “NITROGEN-CONTAINING HETEROCYCLIC DERIVATIVE INHIBITOR, PREPARATION METHOD THEREFOR AND USE THEREOF” (SHANGHAI HANSOH BIOMEDICAL CO., LTD., priority 2022, published 2025).

Columns and labels:
[1] = target: Ba/F3 EGFR Del19/C797S cells (Homo sapiens, UniProt P00533, C797S, cells depend on it, form not given); experiment: Cell proliferation inhibition (Cell Titer-Glo), Ba/F3 EGFR Del19/C797S; assay type: cell-based, mouse; details: 72 hours, CellTiter-Glo, read-out: Ba/F3 EGFR Del19/C797S IC50
Excerpt: (§1) Experimental objective: The objective of this test example is to test the inhibitory activity of compounds on the proliferation of different EGFR C797S drug-resistant mutant cell lines Ba/F3 EGFR Del19/T790M/C797S, Ba/F3 EGFR L858R/T790M/C797S, and Ba/F3 EGFR Del19/C797S.
(§2) • Ba/F3 EGFR Del19/T790M/C797S cells were purchased from KYinno Biotechnology Co., Ltd.; • Ba/F3 EGFR Del19/C797S cells were purchased from CoBioer Biosciences Co., Ltd.; • Ba/F3 EGFR L858R/T790M/C797S cells were purchased from CoBioer Biosciences Co., Ltd.; • Cell Titer-Glo was purchased from Promega, with a catalog number of G7573; • RPMI 1640 was purchased from Gibco, with a catalog number of 22400089; • FBS was purchased from Gibco, with a catalog number of 10091148; • cell culture plates were purchased from Corning, with a catalog number of 3610.
(§3) The inhibitory activity of the compound on the proliferation of different EGFR C797S drug-resistant mutant cell lines was detected using the Cell Titer-Glo method. The different cell lines were cultured in RPMI 1640 complete culture medium containing 10% FBS under conditions of 37° C. and 5% CO2, the cells were collected by centrifugation when growing to a certain density, and adjusted to appropriate cell density after counting, the cells were spread on a white 96-well plate at 90 μL/well, and cultured in a 37° C., 5% CO2 incubator overnight, prepared compound solutions of different concentrations were added at 10 μL/well, corresponding solvent controls were set, and all wells were cultured in a 37° C., 5% CO2 incubator for 72 hours, 50 μL of CellTiter-Glo solution was added to each well, shook and mixed evenly, and incubated in the dark for 10 minutes, and a BioTek Synergy H1 microplate reader was used for reading.
(§4) The luminescence signal value was used to calculate the inhibition rate. Graphpad Prism software was used to fit the concentration and inhibition rate to a nonlinear regression curve, so as to obtain the IC50 value, as shown in the Table below for details.

[2] = target: Ba/F3 EGFR Del19/T790M/C797S cells (Homo sapiens, UniProt P00533, T790M/C797S, cells depend on it, form not given); experiment: Cell proliferation inhibition (Cell Titer-Glo), Ba/F3 EGFR Del19/T790M/C797S; assay type: cell-based, mouse; details: 72 hours, CellTiter-Glo, read-out: Ba/F3 EGFR Del19_T790M_C797S IC50
Excerpt: as §1, §2, §3, §4

[3] = Rat pharmacokinetic evaluation test; assay type: in vivo; details: Sprague-Dawley (SD), po, SD rats, male, p.o. 5 mg/kg, plasma
Experimental: SD rats were used as test animals to study the pharmacokinetic behavior of the compounds of the present invention in the rat body (plasma) after oral administration at a dose of 5 mg/kg.
2.2 Experimental Animals: 3 SD Rats/Group, Male, from Shanghai Jiesijie Experimental Animal Co., Ltd., Animal Production License Number (SCXK (Shanghai) 2013-0006 No. 311620400001794).
• Oral administration drug preparation: 20% solutol HS15 in 0.5% MC (methylcellulose)
20 g of a Solutol HS15 solid and 0.5 g of a MC solid powder were weighed and dissolved in 80 mL of purified water, and the mixture was vortexed, mixed until uniform, and subjected to ultrasound treatment to obtain a clear solution of 20% solutol HS15 in 0.5% MC.
The example compound was weighed into a 20 mL glass bottle, the solution was added thereto and the mixture was subjected to ultrasound treatment for 10 minutes to obtain a clear solution with a concentration of 0.5 mg/mL.
3 male SD rats were administered p.o. respectively after the 3 male SD rats were fasted overnight; the p.o. dose was 5 mg/kg and the administration volume was 10 mL/kg.
Blood collection: Before and after administration to rats, 0.2 mL of blood was collected from the jugular vein at 0.25, 0.5, 1, 2, 4, 6, 8 and 24 h, and placed in an EDTA-K2 anticoagulation tube, which was centrifuged at 6000 rpm at 4° C. for 6 min to separate plasma which was stored at −80° C.; the rats were fed 4 h after administration.
1) 160 μL of acetonitrile was added to 40 μL of plasma sample for precipitation, mixed and centrifuged at 3500×g for 5 to 20 min.
2) the treated supernatant solution was taken and subjected to LC/MS/MS to analyze the concentrations of the test compounds. LC/MS/MS analysis instrument: AB Sciex API 4000 Qtrap.
• Liquid phase conditions: Shimadzu LC-20AD pump • Chromatographic column: Agilent ZORBAX XDB-C18 (50×2.1 mm, 3.5 μm) mobile phase: liquid A is 0.1% aqueous formic acid solution, liquid B is acetonitrile • Flow rate: 0.4 mL/min • Elution time: 0-4.0 min, the eluent is as follows:
The main pharmacokinetic parameters were calculated using WinNonlin 6.1.

Sequence of Ba/F3 EGFR Del19/C797S cells (P00533 with tags, fused parts or gaps DEL746-750/C797S, form open): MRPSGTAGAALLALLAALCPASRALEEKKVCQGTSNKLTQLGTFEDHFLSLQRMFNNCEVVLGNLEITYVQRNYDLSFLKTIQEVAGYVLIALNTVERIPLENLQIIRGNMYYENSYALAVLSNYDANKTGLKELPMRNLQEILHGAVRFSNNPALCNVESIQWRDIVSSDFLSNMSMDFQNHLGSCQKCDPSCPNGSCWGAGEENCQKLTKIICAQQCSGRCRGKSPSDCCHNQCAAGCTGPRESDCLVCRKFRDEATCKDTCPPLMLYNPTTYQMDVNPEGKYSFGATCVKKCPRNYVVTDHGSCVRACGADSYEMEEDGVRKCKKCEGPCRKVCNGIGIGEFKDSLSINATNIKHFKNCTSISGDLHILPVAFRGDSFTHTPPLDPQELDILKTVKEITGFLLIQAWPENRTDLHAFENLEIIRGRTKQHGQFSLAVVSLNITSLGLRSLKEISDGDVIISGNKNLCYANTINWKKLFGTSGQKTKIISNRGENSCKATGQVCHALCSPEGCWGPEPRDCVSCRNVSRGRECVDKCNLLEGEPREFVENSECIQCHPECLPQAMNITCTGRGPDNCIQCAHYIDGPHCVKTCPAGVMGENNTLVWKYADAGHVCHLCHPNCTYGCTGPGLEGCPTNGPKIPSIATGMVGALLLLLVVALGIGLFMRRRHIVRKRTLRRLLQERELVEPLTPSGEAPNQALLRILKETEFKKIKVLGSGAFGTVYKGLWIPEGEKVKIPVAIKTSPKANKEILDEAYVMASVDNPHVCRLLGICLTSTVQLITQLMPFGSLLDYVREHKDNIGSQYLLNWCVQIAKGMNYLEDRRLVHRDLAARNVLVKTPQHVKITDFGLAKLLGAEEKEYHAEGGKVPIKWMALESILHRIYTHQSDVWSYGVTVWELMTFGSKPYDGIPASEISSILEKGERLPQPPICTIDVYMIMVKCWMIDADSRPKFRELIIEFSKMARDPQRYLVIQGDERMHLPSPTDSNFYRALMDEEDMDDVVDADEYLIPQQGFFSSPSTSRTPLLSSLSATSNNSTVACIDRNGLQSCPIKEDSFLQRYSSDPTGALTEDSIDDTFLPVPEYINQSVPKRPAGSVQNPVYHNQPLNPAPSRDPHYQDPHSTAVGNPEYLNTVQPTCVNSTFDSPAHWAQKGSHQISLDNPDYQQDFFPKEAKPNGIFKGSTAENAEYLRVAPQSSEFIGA
Sequence of Ba/F3 EGFR Del19/T790M/C797S cells (P00533 with tags, fused parts or gaps DEL746-750/T790M/C797S, form open): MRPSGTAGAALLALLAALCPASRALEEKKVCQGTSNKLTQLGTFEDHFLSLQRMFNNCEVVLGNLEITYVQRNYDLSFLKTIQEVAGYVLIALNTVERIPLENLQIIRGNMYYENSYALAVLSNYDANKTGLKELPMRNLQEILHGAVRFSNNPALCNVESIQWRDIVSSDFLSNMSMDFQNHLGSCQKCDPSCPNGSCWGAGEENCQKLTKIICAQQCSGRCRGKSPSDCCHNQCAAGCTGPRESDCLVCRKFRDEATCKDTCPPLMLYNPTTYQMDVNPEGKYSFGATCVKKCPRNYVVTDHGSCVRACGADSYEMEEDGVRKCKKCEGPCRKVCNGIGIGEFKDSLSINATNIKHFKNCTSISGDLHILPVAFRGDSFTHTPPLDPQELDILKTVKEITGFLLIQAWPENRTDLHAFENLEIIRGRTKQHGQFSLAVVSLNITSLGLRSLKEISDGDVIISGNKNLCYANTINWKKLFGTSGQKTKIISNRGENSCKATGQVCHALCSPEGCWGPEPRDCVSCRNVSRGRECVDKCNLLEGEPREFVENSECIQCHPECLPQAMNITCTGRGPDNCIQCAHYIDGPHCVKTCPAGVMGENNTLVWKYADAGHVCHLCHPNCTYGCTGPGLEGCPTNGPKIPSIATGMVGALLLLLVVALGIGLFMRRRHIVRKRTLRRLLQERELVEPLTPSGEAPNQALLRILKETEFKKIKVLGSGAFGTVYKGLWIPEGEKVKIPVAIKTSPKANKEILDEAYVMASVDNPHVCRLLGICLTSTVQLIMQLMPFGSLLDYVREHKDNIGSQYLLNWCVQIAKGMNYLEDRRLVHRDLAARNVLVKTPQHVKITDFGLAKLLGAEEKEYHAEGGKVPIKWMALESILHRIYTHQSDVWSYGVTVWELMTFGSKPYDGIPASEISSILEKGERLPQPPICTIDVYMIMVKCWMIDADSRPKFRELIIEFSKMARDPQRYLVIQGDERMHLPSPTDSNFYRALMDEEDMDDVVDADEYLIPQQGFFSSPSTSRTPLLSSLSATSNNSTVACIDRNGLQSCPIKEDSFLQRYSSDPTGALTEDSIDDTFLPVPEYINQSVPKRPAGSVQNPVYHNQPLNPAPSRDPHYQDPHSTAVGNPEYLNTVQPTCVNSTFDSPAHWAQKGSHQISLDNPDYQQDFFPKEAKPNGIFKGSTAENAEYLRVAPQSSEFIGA

Row | Structure (SMILES) | GI50 [1] | also measured
1 | [2H]C([2H])([2H])c1nn(C)cc1-c1nccc(Nc2cc3c(C(C)C)ccc(N4C[C@H](CS(C)(=O)=O)[C@H]4C)c3cn2)n1 [Example 3, 5-isopropyl-8-((2R,3S)-2-methyl-3-((methanesulfonyl)methyl)azetidin-1-yl)-N-(2-(1-methyl-3-(methyl-d3)-1H-pyrazol-4-yl)pyrimidin-4-yl)isoquinolin-3-amine] | 16 nM | AUC(0-t) [3]: 2380 ng·h/mL; Cmax [3]: 458 ng/mL; half-life [3]: 4.1 h
2 | CC(C)c1ccc(N2CC(N=S(C)(C)=O)C2)c2cnc(Nc3ccnc(-c4cn(C)nc4Cl)n3)cc12 [Example 102, ((1-(3-((2-(3-chloro-1-methyl-1H-pyrazol-4-yl)pyrimidin-4-yl)amino)-5-isopropylisoquinolin-8-yl)azetidin-3-yl)imino)dimethyl-16-sulfanone] | 73 nM | –
3 | CC(C)c1ccc(N2C[C@H](CS(C)(=O)=O)[C@H]2C)c2cnc(Nc3ccnc(-c4cn(C[C@@H]5CCCO5)nc4Cl)n3)cc12 [Example 145, N-(2-(3-chloro-1-(((S)-tetrahydrofuran-2-yl)methyl)-1H-pyrazol-4-yl)pyrimidin-4-yl)-5-isopropyl-8-((2R,3S)-2-methyl-3-((methanesulfonyl)methyl)azetidin-1-yl)isoquinolin-3-amine] | 45 nM | –
4 | CC(C)c1ncc(N2C[C@H](CS(C)(=O)=O)[C@H]2C)c2cnc(Nc3ccnc(-c4cn(C)nc4Cl)n3)cc12 [Example 133, N-(2-(3-chloro-1-methyl-1H-pyrazol-4-yl)pyrimidin-4-yl)-5-isopropyl-8-((2R,3S)-2-methyl-3-((methanesulfonyl)methyl)azetidin-1-yl)-2,6-diazanaphthalen-3-amine] | 27 nM | –
5 | CC(C)c1ccc(N2C[C@H](CS(C)(=O)=O)[C@H]2C)c2cnc(Nc3ccnc(-c4cn(C5CCN(C)CC5)nc4Cl)n3)cc12 [Example 158, N-(2-(3-chloro-1-(1-methylpiperidin-4-yl)-1H-pyrazol-4-yl)pyrimidin-4-yl)-5-isopropyl-8-((2R,3S)-2-methyl-3-((methanesulfonyl)methyl)azetidin-1-yl)isoquinolin-3-amine] | 50 nM | –
6 | CC(C)c1ccc(N2C[C@H](CS(C)(=O)=O)[C@H]2C)c2cnc(Nc3ccnc(-c4cn(C5CC(=O)C5)nc4Cl)n3)cc12 [Example 156, 3-(3-chloro-4-(4-((5-isopropyl-8-((2R,3S)-2-methyl-3-((methanesulfonyl)methyl)azetidin-1-yl)isoquinolin-3-yl)amino)pyrimidin-2-yl)-1H-pyrazol-1-yl)cyclobutan-1-one] | 42 nM | –
7 | CC(C)c1ccc(N2C[C@H](CS(C)(=O)=O)[C@H]2C)c2cnc(Nc3ccnc(-c4cn(C5CC5)nc4F)n3)cc12 [Example 9, N-(2-(1-cyclopropyl-3-fluoro-1H-pyrazol-4-yl)pyrimidin-4-yl)-5-isopropyl-8-((2R,3S)-2-methyl-3-((methylsulfonyl)methyl)azetidin-1-yl)isoquinolin-3-amine] | 57 nM | –
8 | CC(C)c1ccc(N2C[C@H](CS(C)(=O)=O)[C@H]2C)c2cnc(Nc3ccnc(-c4cn(C(C)CC#N)nc4Cl)n3)cc12 (stereo partly drawn) [Example 185, 3-(3-chloro-4-(4-((5-isopropyl-8-((2R,3S)-2-methyl-3-((methanesulfonyl)methyl)azetidin-1-yl)isoquinolin-3-yl)amino)pyrimidin-2-yl)-1H-pyrazol-1-yl)butyronitrile] | 80 nM | –
9 | CC(C)c1ccc(N2C[C@H](CS(C)(=O)=O)[C@H]2C)c2cnc(Nc3ccnc(-c4cn(CC(O)C(F)(F)F)nc4Cl)n3)cc12 (stereo partly drawn) [Example 113, 3-(3-chloro-4-(4-((5-isopropyl-8-((2R,3S)-2-methyl-3-((methanesulfonyl)methyl)azetidin-1-yl)isoquinolin-3-yl)amino)pyrimidin-2-yl)-1H-pyrazol-1-yl)-1,1,1-trifluoropropan-2-ol] | 60 nM | –
10 | Cc1nn(C)cc1-c1nccc(Nc2cc3c(C(C)C)ccc(N4CC(CS(C)(=O)=NC#N)C4)c3cn2)n1 (stereo not drawn) [Example 167, N-(((1-(3-((2-(1,3-dimethyl-1H-pyrazol-4-yl)pyrimidin-4-yl)amino)-5-isopropylisoquinolin-8-yl)azetidin-3-yl)methyl)(methyl)(carbonyl)-16-sulfanylidene)cyanamide] | 74 nM | –

Compounds with a lower GI50 [1], results first:

Row | GI50 [1] | Structure (SMILES) | also measured
11 | 7.8 nM | Cc1nn(C)cc1-c1nccc(Nc2cc3c(C(C)C)c(F)cc(N4C[C@H](N(C)S(C)(=O)=O)[C@H]4C)c3cn2)n1 [Example 127, N-((2R,3S)-1-(3-((2-(1,3-dimethyl-1H-pyrazol-4-yl)pyrimidin-4-yl)amino)-6-fluoro-5-isopropylisoquinolin-8-yl)-2-methylazetidin-3-yl)-N-methyl methanesulfonamide] | GI50 [2]: 4.5 nM
12 | 5.9 nM | CC(C)c1cnc(N2CC(N(C)S(C)(=O)=O)C2)c2cnc(Nc3ccnc(-c4cn(C)nc4Cl)n3)cc12 [Example 130, N-(1-(6-((2-(3-chloro-1-methyl-1H-pyrazol-4-yl)pyrimidin-4-yl)amino)-4-isopropyl-2,7-diazanaphthalen-1-yl)azetidin-3-yl)-N-methyl methanesulfonamide] | GI50 [2]: 8.1 nM
13 | 7.4 nM | CC(C)c1ncc(N2CC(N(C)S(C)(=O)=O)C2)c2cnc(Nc3ccnc(-c4cn(C)nc4Cl)n3)cc12 [Example 131, N-(1-(7-((2-(3-chloro-1-methyl-1H-pyrazol-4-yl)pyrimidin-4-yl)amino)-1-isopropyl-2,6-diazanaphthalen-4-yl)azetidin-3-yl)-N-methyl methanesulfonamide] | –
14 | 5.6 nM | Cc1nn(C)cc1-c1nccc(Nc2cc3c(C(C)C)ncc(N4CC(N(C)S(C)(=O)=O)C4)c3cn2)n1 [Example 60, N-(1-(7-((2-(1,3-dimethyl-1H-pyrazol-4-yl)pyrimidin-4-yl)amino)-1-isopropyl-2,6-diazanaphthalen-4-yl)azetidin-3-yl)-N-methyl methanesulfonamide] | –
15 | 5 nM | CC(C)c1ncc(N2C[C@H](N(C)S(C)(=O)=O)[C@H]2C)c2cnc(Nc3ccnc(-c4cn(C)nc4Cl)n3)cc12 [Example 59, N-((2R,3S)-1-(7-((2-(3-chloro-1-methyl-1H-pyrazol-4-yl)pyrimidin-4-yl)amino)-1-isopropyl-2,6-diazanaphthalen-4-yl)-2-methylazetidin-3-yl)-N-methyl methanesulfonamide] | –
16 | 14 nM | CC(C)c1ccc(N2C[C@H](N3CCOC3=O)[C@H]2C)c2cnc(Nc3ccnc(-c4cn(C)nc4Cl)n3)cc12 [Example 109, 3-((2R,3S)-1-(3-((2-(3-chloro-1-methyl-1H-pyrazol-4-yl)pyrimidin-4-yl)amino)-5-isopropylisoquinolin-8-yl)-2-methylazetidin-3-yl)oxazolidin-2-one] | –
